Results reported in patent publication US20100317647A1 (priority 2009, published 2010).

The compounds below were run against human Cat S (Homo sapiens, UniProt P25774) (assay: Cathepsin enzyme inhibition assay (fluorogenic peptide substrate cleavage)). Settings: human Cat S 1 nM; substrate Z-Val-Val-Arg-AMC 20 μM; pH 6.5; fluorescence over 20 minutes.
Type: biochemical
Procedure, shortened: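 IC50 values derived from fluorescence increase (ex 360 nm, em 465 nm) monitored for 20 minutes after substrate addition. Enzyme held at 1 nM with 20 μM Z-Val-Val-Arg-AMC, in pH 6.5 potassium phosphate buffer containing DTT, EDTA and Triton X-100.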

human Cat S, sequence (P25774 115-331): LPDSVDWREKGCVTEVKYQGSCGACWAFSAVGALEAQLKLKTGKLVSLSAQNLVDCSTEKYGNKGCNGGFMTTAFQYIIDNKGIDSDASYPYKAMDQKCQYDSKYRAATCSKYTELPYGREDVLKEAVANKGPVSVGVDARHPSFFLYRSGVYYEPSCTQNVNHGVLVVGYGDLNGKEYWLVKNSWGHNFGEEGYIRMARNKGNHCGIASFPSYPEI

Structure (SMILES) | IC50
Cc1cc(Cl)ccc1S(=O)(=O)[C@@H]1C[C@@H](C(=O)NC(C#N)c2ccccc2)[C@H](C(=O)N2CCOCC2)C1 (stereo partly drawn) [Example 31, (1R,2R,4R)-4-(4-Chloro-2-methyl-benzenesulfonyl)-2-(morpholine-4-carbonyl)-cyclopentanecarboxylic acid (cyano-phenyl-methyl)-amide] | 0.2 nM
Cc1cc(Cl)ccc1S(=O)(=O)[C@@H]1C[C@@H](C(=O)NCC#N)[C@H](C(=O)N2C[C@@H](C)O[C@@H](C)C2)C1 [Example 32, (1R,2R,4R)-4-(4-Chloro-2-methyl-benzenesulfonyl)-2-((2S,6R)-2,6-dimethyl-morpholine-4-carbonyl)-cyclopentanecarboxylic acid cyanomethyl-amide] | 0.4 nM
Cc1cc(Cl)ccc1S(=O)(=O)[C@@H]1C[C@@H](C(=O)NCC#N)[C@H](C(=O)N2CCN(C)CC2)C1 [Example 33, (1R,2R,4R)-4-(4-Chloro-2-methyl-benzenesulfonyl)-2-(4-methyl-piperazine-1-carbonyl)-cyclopentanecarboxylic acid cyanomethyl-amide] | 1.6 nM
CC(C)(C#N)NC(=O)[C@@H]1C[C@@H](S(=O)(=O)c2ccccc2)C[C@H]1C(=O)N1CCOCC1 [Example 34, (1R,2R,4R)-4-Benzenesulfonyl-2-(morpholine-4-carbonyl)-cyclopentanecarboxylic acid (cyano-dimethyl-methyl)-amide] | 2.5 nM
N#CC1(NC(=O)[C@@H]2C[C@@H](S(=O)(=O)c3ccccc3)C[C@H]2C(=O)N2CCOCC2)CCC1 [Example 35, (1R,2R,4R)-4-Benzenesulfonyl-2-(morpholine-4-carbonyl)-cyclopentanecarboxylic acid (1-cyano-cyclobutyl)-amide] | 4 nM
N#CCNC(=O)[C@@H]1C[C@@H](S(=O)(=O)c2cccc3ccccc23)C[C@H]1C(=O)N1CCOCC1 [Example 36, (1R,2R,4R)-2-(Morpholine-4-carbonyl)-4-(naphthalene-1-sulfonyl)-cyclopentanecarboxylic acid cyanomethyl-amide] | 0.4 nM
N#CCNC(=O)[C@@H]1C[C@@H](S(=O)(=O)Cc2ccccc2)C[C@H]1C(=O)N1CCOCC1 [Example 38, (1R,2R,4R)-2-(Morpholine-4-carbonyl)-4-phenylmethanesulfonyl-cyclopentanecarboxylic acid cyanomethyl-amide] | 533 nM
CC(C)CS(=O)(=O)[C@@H]1C[C@@H](C(=O)NCC#N)[C@H](C(=O)N2CCOCC2)C1 [Example 39, (1R,2R,4R)-4-(2-Methyl-propane-1-sulfonyl)-2-(morpholine-4-carbonyl)-cyclopentanecarboxylic acid cyanomethyl-amide] | 445 nM
N#CC1(NC(=O)[C@@H]2C[C@@H](S(=O)(=O)c3ccccc3)C[C@H]2C(=O)Nc2ccc(F)cc2)CC1 [Example 42, (1R,2R,4S)-4-Benzenesulfonyl-cyclopentane-1,2-dicarboxylic acid 1-[(1-cyano-cyclopropyl)-amide]2-[(4-fluoro-phenyl)-amide]] | 25.5 nM
Cc1cc(Cl)ccc1S(=O)(=O)[C@@H]1C[C@@H](C(=O)NC2(C#N)CCN(C)CC2)[C@H](C(=O)N2CCOCC2)C1 [Example 45, (1R,2R,4R)-4-(4-Chloro-2-methyl-benzenesulfonyl)-2-(morpholine-4-carbonyl)-cyclopentanecarboxylic acid (4-cyano-1-methyl-piperidin-4-yl)-amide formiate] | 0.1 nM
N#CC1(NC(=O)[C@@H]2C[C@@H](S(=O)(=O)c3ccc(Br)cc3C(F)(F)F)C[C@H]2C(=O)N2CC(F)(F)C2)CC1 [Example 117, (1R,2R,4R)-4-(4-Bromo-2-trifluoromethyl-benzenesulfonyl)-2-(3,3-difluoro-azetidine-1-carbonyl)-cyclopentanecarboxylic acid (1-cyano-cyclopropyl)-amide] | 1.1 nM
N#CC1(NC(=O)[C@@H]2C[C@@H](S(=O)(=O)c3ccc(F)cc3C(F)(F)F)C[C@H]2C(=O)N2CC(F)(F)C2)CC1 [Example 118, (1R,2R,4R)-2-(3,3-Difluoro-azetidine-1-carbonyl)-4-(4-fluoro-2-trifluoromethyl-benzenesulfonyl)-cyclopentanecarboxylic acid (1-cyano-cyclopropyl)-amide] | 3 nM
N#CC1(NC(=O)[C@@H]2C[C@@H](S(=O)(=O)c3ccc(F)cc3Cl)C[C@H]2C(=O)N2CC(F)(F)C2)CC1 [Example 119, (1R,2R,4R)-4-(2-Chloro-4-fluoro-benzenesulfonyl)-2-(3,3-difluoro-azetidine-1-carbonyl)-cyclopentanecarboxylic acid (1-cyano-cyclopropyl)-amide] | 6.1 nM
Cc1cc(-c2ccc(S(=O)(=O)[C@@H]3C[C@@H](C(=O)NC4(C#N)CC4)[C@H](C(=O)N4CC(F)(F)C4)C3)c(C(F)(F)F)c2)ccn1 [Example 121, (1R,2R,4R)-2-(3,3-Difluoro-azetidine-1-carbonyl)-4-[4-(2-methyl-pyridin-4-yl)-2-trifluoromethyl-benzenesulfonyl]-cyclopentanecarboxylic acid (1-cyano-cyclopropyl)-amide] | 0.2 nM
N#CC1(NC(=O)[C@@H]2C[C@@H](S(=O)(=O)c3ccc(-c4ccnc(Cl)c4)cc3C(F)(F)F)C[C@H]2C(=O)N2CC(F)(F)C2)CC1 [Example 122, (1R,2R,4R)-4-[4-(2-Chloro-pyridin-4-yl)-2-trifluoromethyl-benzenesulfonyl]-2-(3,3-difluoro-azetidine-1-carbonyl)-cyclopentanecarboxylic acid (1-cyano-cyclopropyl)-amide] | 0.2 nM
N#CC1(NC(=O)[C@@H]2C[C@@H](S(=O)(=O)c3ccc(N4CCN(C5CC5)CC4)cc3C(F)(F)F)C[C@H]2C(=O)N2CC(F)(F)C2)CC1 [Example 129, (1R,2R,4R)-4-[4-(4-Cyclopropyl-piperazin-1-yl)-2-trifluoromethyl-benzenesulfonyl]-2-(3,3-difluoro-azetidine-1-carbonyl)-cyclopentanecarboxylic acid (1-cyano-cyclopropyl)-amide] | 0.6 nM

More lines, in order of falling IC50, values ahead:

IC50 | Structure (SMILES)
1300 nM | Cc1cc(Cl)ccc1S(=O)(=O)[C@H]1C[C@@H](C(=O)N2CCOCC2)[C@H](C(=O)N2CCC[C@H]2C#N)C1 [Example 44, (S)-1-[(1R,2R,4S)-4-(4-Chloro-2-methyl-benzenesulfonyl)-2-(morpholine-4-carbonyl)-cyclopentanecarbonyl]-pyrrolidine-2-carbonitrile]
230 nM | N#CCNC(=O)[C@@H]1C[C@@H](S(=O)(=O)CC2CC2)C[C@H]1C(=O)N1CCOCC1 [Example 40, (1R,2R,4R)-4-Cyclopropylmethanesulfonyl-2-(morpholine-4-carbonyl)-cyclopentanecarboxylic acid cyanomethyl-amide]
1.1 nM | N#CC1(NC(=O)C2CC(S(=O)(=O)c3ccc(OC4COC4)cc3C(F)(F)F)CC2C(=O)N2CC(F)(F)C2)CC1 (centres unmarked) [Example 127, 2-(3,3-Difluoro-azetidine-1-carbonyl)-4-[4-(oxetan-3-yloxy)-2-trifluoromethyl-benzenesulfonyl]-cyclopentanecarboxylic acid (1-cyano-cyclopropyl)-amide]
0.9 nM | N#CCNC(=O)[C@@H]1C[C@@H](S(=O)(=O)c2ccccc2C(F)(F)F)C[C@H]1C(=O)N1CCOCC1 [Example 37, (1R,2R,4R)-2-(Morpholine-4-carbonyl)-4-(2-trifluoromethyl-benzenesulfonyl)-cyclopentanecarboxylic acid cyanomethyl-amide]
0.7 nM | N#CC1(NC(=O)C2CC(S(=O)(=O)c3ccc(-n4cccn4)cc3C(F)(F)F)CC2C(=O)N2CC(F)(F)C2)CC1 (centres unmarked) [Example 128, 2-(3,3-Difluoro-azetidine-1-carbonyl)-4-(4-pyrazol-1-yl-2-trifluoromethyl-benzenesulfonyl)-cyclopentanecarboxylic acid (1-cyano-cyclopropyl)-amide]
0.6 nM | N#CC1(NC(=O)[C@@H]2C[C@@H](S(=O)(=O)c3ccc(-c4cncc(-c5cnc(Cl)cn5)n4)cc3C(F)(F)F)C[C@H]2C(=O)N2CC(F)(F)C2)CC1 [Example 126, (1R,2R,4R)-4-[4-(5′-Chloro-[2,2]bipyrazinyl-6-yl)-2-trifluoromethyl-benzenesulfonyl]-2-(3,3-difluoro-azetidine-1-carbonyl)-cyclopentanecarboxylic acid (1-cyano-cyclopropyl)-amide]
0.3 nM | N#CC1(NC(=O)[C@@H]2C[C@@H](S(=O)(=O)c3ccc(C4CC4)cc3C(F)(F)F)C[C@H]2C(=O)N2CC(F)(F)C2)CC1 [Example 125, (1R,2R,4R)-4-(4-Cyclopropyl-2-trifluoromethyl-benzenesulfonyl)-2-(3,3-difluoro-azetidine-1-carbonyl)-cyclopentanecarboxylic acid (1-cyano-cyclopropyl)-amide]
0.2 nM | Cn1cc(-c2ccc(S(=O)(=O)[C@@H]3C[C@@H](C(=O)NC4(C#N)CC4)[C@H](C(=O)N4CC(F)(F)C4)C3)c(C(F)(F)F)c2)cn1 [Example 120, (1R,2R,4R)-2-(3,3-Difluoro-azetidine-1-carbonyl)-4-[4-(1-methyl-1H-pyrazol-4-yl)-2-trifluoromethyl-benzenesulfonyl]-cyclopentanecarboxylic acid (1-cyano-cyclopropyl)-amide]
0.2 nM | Cn1nccc1-c1ccc(S(=O)(=O)[C@@H]2C[C@@H](C(=O)NC3(C#N)CC3)[C@H](C(=O)N3CC(F)(F)C3)C2)c(C(F)(F)F)c1 [Example 124, (1R,2R,4R)-2-(3,3-Difluoro-azetidine-1-carbonyl)-4-[4-(2-methyl-2H-pyrazol-3-yl)-2-trifluoromethyl-benzenesulfonyl]-cyclopentanecarboxylic acid (1-cyano-cyclopropyl)-amide]
0.1 nM | N#CC1(NC(=O)[C@@H]2C[C@@H](S(=O)(=O)c3ccc(-c4cncc(Cl)n4)cc3C(F)(F)F)C[C@H]2C(=O)N2CC(F)(F)C2)CC1 [Example 123, (1R,2R,4R)-4-[4-(6-Chloro-pyrazin-2-yl)-2-trifluoromethyl-benzenesulfonyl]-2-(3,3-difluoro-azetidine-1-carbonyl)-cyclopentanecarboxylic acid (1-cyano-cyclopropyl)-amide]
